Measurements taken from publication PMC9454457 (Journal of Nuclear Medicine, 2022).
Like-named read-outs stand apart in the source and are kept apart here.

What was measured:
GRPR [1] = target: T1, GRPR (Homo sapiens, UniProt P30550); experiment: Competitive binding (IC50) on PC-3 cells vs 3-125I-D-Tyr6-MJ9; conditions: 2 h, room temperature, 3-125I-D-Tyr6-MJ9 0.2 nM/well, n = 3
T1 construct: endogenous in cells; host or cells: PC-3 cells
Description: Competitive binding studies were performed on both PC-3 and T-47D cells (1.5 × 10^5 cells in 1 mL/well) via incubation at room temperature for 2 h using 3-^125I-D-Tyr^6-MJ9 (0.2 nM/well) as a radiolabeled reference (n = 3). Internalization studies of the ^177Lu-labeled conjugates (1.0 nM/well) were performed on PC-3 cells (1.5 × 10^5 cells in 1 mL/well) at 37°C for 1 h (n = 6). Data were corrected for nonspecific binding (competition by 10^−3 M ^natLu-RM2).
(§1) FIGURE 2. Preclinical data of ^nat/177Lu-RM2 (red), ^nat/177Lu-NeoBOMB1 (gray), ^nat/177Lu-AMTG (green), and ^nat/177Lu-AMTG2 (blue). (A) Affinity data on PC-3 and T-47D cells (1.5 × 10^5 cells/mL/well) using 3-^125I-D-Tyr^6-MJ9 (0.2 nM/well) as radiolabeled reference (2 h, room temperature, Hanks’ balanced salt solution plus 1% bovine serum albumin [v/v]). (B) GRPR-mediated internalization (0.25 pmol/well) on PC-3 cells as percentage of applied activity (incubation at 37°C for 1 h, Dulbecco modified Eagle medium/F-12 plus 5% bovine serum albumin [v/v], 1.5 × 10^5 cells/mL/well). Data were corrected for nonspecific binding (10^−3 M ^natLu-RM2). (C) Lipophilicity at pH 7.4 (logD7.4). (D) Metabolic stability in vitro in human plasma (left) (37°C, 72 ± 2 h; n = 4), and metabolic stability in vivo in murine plasma (middle) and murine urine (right) at 30 min after injection (n = 3). Data are expressed as mean ± SD.

[2] = Biodistribution in PC-3 tumor-bearing CB17-SCID mice; format: in vivo
Description: A detailed description of tumor inoculation is provided in the supplemental materials. Approximately 2–5 MBq (100 pmol, 150 μL) of the ^177Lu-labeled GRPR ligands were injected into the tail vein of anesthetized (2% isoflurane) PC-3 tumor–bearing mice (biodistribution, n = 4; imaging, n = 1).
For biodistribution studies, organs were removed, weighed, and measured in a γ-counter (Perkin Elmer) after euthanasia at 24 h after injection.
For all competition studies, 3.62 mg/kg (40 nmol) of ^natLu-RM2 (10^−3 M in phosphate-buffered saline) were coadministered.

[3] = Lipophilicity, n-octanol-PBS distribution coefficient (logD7.4); format: physicochemical; conditions: n-octanol/PBS pH 7.4
Description: Approximately 1 MBq of the ^177Lu-labeled compound was dissolved in 1 mL of phosphate-buffered saline (pH 7.4) and n-octanol (v/v = 1/1). After stirring for 3 min at room temperature in a vortex mixer and subsequent centrifugation at 9,000 rpm for 5 min (Biofuge 15; Heraeus Sepatech GmbH), 200-μL aliquots of both layers were measured separately in a γ-counter. The experiment was repeated at least 5 times.

[4] = 30 min after injection; cited from earlier work
[5] = In vivo metabolic stability in murine plasma and urine; design: species or system CB17-SCID mice; conditions: 30 min after injection, n = 3
Description: Approximately 30–40 MBq (1 nmol, 150 μL) of the ^177Lu-labeled compounds were injected into the tail vein of anesthetized CB17-SCID mice (n = 3). After euthanasia at 30 min after injection, blood and urine samples were collected. Blood proteins were precipitated by treatment with ice-cold MeCN (v/v = 1/1), followed by centrifugation (13,000 rpm, 20 min). The supernatants were decanted and further centrifuged (13,000 rpm, 10 min) using a Costar Spin-X centrifuge tube filter (0.45 μm). The filtrated plasma samples and the urine samples were analyzed using radio–RP-HPLC.
as §1

[6] = In vitro metabolic stability in human plasma; format: in vitro ADME; conditions: 37°C, 72 ± 2 h, n = 4
Description: Metabolic stability in vitro was determined through a procedure published by Linder et al. that was slightly modified ([16]). Immediately after labeling, 200 μL of human plasma were added and the mixture was incubated at 37°C for 72 ± 2 h. Proteins were precipitated by treatment with ice-cold EtOH (150 μL) and ice-cold MeCN (450 μL), followed by centrifugation (13,000 rpm, 20 min). The supernatants were decanted and further centrifuged (13,000 rpm, 10 min) using a Costar Spin-X (Corning) centrifuge tube filter (0.45 μm). The filtrated plasma samples were analyzed using radio–RP-HPLC.
as §1

GRPR [7] = target: T1, GRPR; design: method as in PMID 19671861, PMID 17262215; conditions: 1 h in vitro; cited from earlier work

T1 sequence (P30550 whole entry): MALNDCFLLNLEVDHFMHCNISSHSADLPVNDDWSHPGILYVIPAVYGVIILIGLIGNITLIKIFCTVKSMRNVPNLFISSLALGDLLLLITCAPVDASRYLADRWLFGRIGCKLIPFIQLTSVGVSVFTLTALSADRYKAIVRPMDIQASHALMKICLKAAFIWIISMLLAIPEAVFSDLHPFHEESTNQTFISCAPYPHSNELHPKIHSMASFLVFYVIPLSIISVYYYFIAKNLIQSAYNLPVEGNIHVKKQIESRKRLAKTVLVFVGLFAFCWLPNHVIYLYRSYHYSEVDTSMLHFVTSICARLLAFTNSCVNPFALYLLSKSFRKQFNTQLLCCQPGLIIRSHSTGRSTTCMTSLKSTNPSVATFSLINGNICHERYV

## CC(C)C[C@H](NC(=O)C[C@H](O)[C@H](CC(C)C)NC(=O)[C@H](Cc1c[nH]cn1)NC(=O)CNC(=O)[C@@H](NC(=O)[C@H](C)NC(=O)[C@H](Cc1c[nH]c2ccccc12)NC(=O)[C@H](CCC(N)=O)NC(=O)[C@@H](Cc1ccc(O)c(I)c1)NC(=O)CN1CCC(N)CC1)C(C)C)C(N)=O [cold counterpart of 3-^125I-D-Tyr^6-MJ9]
GRPR [1]
  IC50: 1.3 ± 0.4 nM

## CC(C)CC(CC(C)C)NC(=O)[C@H](Cc1cnc[nH]1)NC(=O)CNC(=O)[C@@H](NC(=O)[C@H](C)NC(=O)[C@H](Cc1c[nH]c2ccccc12)NC(=O)[C@H](CCC(N)=O)NC(=O)[C@@H](Cc1ccccc1)NC(=O)COCC(=O)Nc1ccc(CNC(=O)CN2CCN(CC(=O)O)CCN(CC(=O)O)CCN(CC(=O)O)CC2)cc1)C(C)C [^177Lu-NeoBOMB1, metal not drawn, reference compound]
[2]; CB17-SCID, mouse, blood, intravenous, total radioactivity; 24 h after injection, 100 pmol, n = 4; read-out: Biodistribution, Blood
  tissue uptake at 24 h: 0.057 ± 0.027 %ID/g
[2]; CB17-SCID, mouse, heart, intravenous, total radioactivity; 24 h after injection, 100 pmol, n = 4; read-out: Biodistribution, Heart
  tissue uptake at 24 h: 0.1 ± 0.03 %ID/g
[2]; CB17-SCID, mouse, intestine, intravenous, total radioactivity; 24 h after injection, 100 pmol, n = 4; read-out: Biodistribution, Intestine
  tissue uptake at 24 h: 0.85 ± 0.05 %ID/g
[2]; CB17-SCID, mouse, kidney, intravenous, total radioactivity; 24 h after injection, 100 pmol, n = 4; read-out: Biodistribution, Kidney
  tissue uptake at 24 h: 1.9 ± 0.72 %ID/g
[2]; CB17-SCID, mouse, liver, intravenous, total radioactivity; 24 h after injection, 100 pmol, n = 4; read-out: Biodistribution, Liver
  tissue uptake at 24 h: 1.6 ± 0.62 %ID/g
[2]; CB17-SCID, mouse, lung, intravenous, total radioactivity; 24 h after injection, 100 pmol, n = 4; read-out: Biodistribution, Lung
  tissue uptake at 24 h: 0.43 %ID/g
[2]; CB17-SCID, mouse, muscle, intravenous, total radioactivity; 24 h after injection, 100 pmol, n = 4; read-out: Biodistribution, Muscle
  tissue uptake at 24 h: 0.01 ± 0.005 %ID/g
[2]; CB17-SCID, mouse, pancreas, intravenous, total radioactivity; 24 h after injection, 100 pmol, n = 4; read-out: Biodistribution, Pancreas
  tissue uptake at 24 h: 8.48 ± 0.92 %ID/g
[2]; CB17-SCID, mouse, spleen, intravenous, total radioactivity; 24 h after injection, 100 pmol, n = 4; read-out: Biodistribution, Spleen
  tissue uptake at 24 h: 1.94 ± 0.97 %ID/g
[2]; CB17-SCID, mouse, stomach, intravenous, total radioactivity; 24 h after injection, 100 pmol, n = 4; read-out: Biodistribution, Stomach
  tissue uptake at 24 h: 1.29 ± 0.12 %ID/g
[2]; CB17-SCID, mouse, tumor (PC-3), intravenous, total radioactivity; PC-3 tumor, 24 h after injection, 100 pmol, n = 4; read-out: Biodistribution, Tumor
  tissue uptake at 24 h: 7.23 ± 0.91 %ID/g
[3]
  logD: -0.57 ± 0.03
[4]
  Fraction of intact tracer in murine blood: 90%
[5]
  Intact tracer in murine plasma in vivo: 75.9% ± 0.6%
  Intact tracer in murine urine in vivo: 3.9% ± 1.3%
[6]
  Intact compound in human plasma in vitro: 61.9% ± 2.1%

## CC(C)C[C@H](NC(=O)C[C@H](O)[C@H](CC(C)C)NC(=O)[C@H](Cc1c[nH]cn1)NC(=O)CNC(=O)[C@@H](NC(=O)[C@H](C)NC(=O)[C@H](Cc1c[nH]c2ccccc12)NC(=O)[C@H](CCC(N)=O)NC(=O)[C@@H](Cc1ccccc1)NC(=O)CN1CCC(NC(=O)CN2CCN(CC(=O)O)CCN(CC(=O)O)CCN(CC(=O)O)CC2)CC1)C(C)C)C(N)=O [^177Lu-RM2, metal not drawn, reference compound]
[2]; CB17-SCID, mouse, adrenal, intravenous, 100 pmol, total radioactivity, 24 h after injection, 100 pmol, n = 4; read-out: Biodistribution, Adrenal
  tissue uptake at 24 h: 0.8 ± 0.16 %ID/g
[2]; CB17-SCID, mouse, blood, intravenous, 100 pmol, total radioactivity, 24 h after injection, 100 pmol, n = 4; read-out: Biodistribution, Blood
  tissue uptake at 24 h: 0.012 ± 0.001 %ID/g
[2]; CB17-SCID, mouse, bone, intravenous, 100 pmol, total radioactivity, 24 h after injection, 100 pmol, n = 4; read-out: Biodistribution, Bone
  tissue uptake at 24 h: 1.31 ± 0.56 %ID/g
[2]; CB17-SCID, mouse, kidney, intravenous, 100 pmol, total radioactivity, 24 h after injection, 100 pmol, n = 4; read-out: Biodistribution, Kidney
  tissue uptake at 24 h: 1.79 ± 0.05 %ID/g
[2]; CB17-SCID, mouse, liver, intravenous, 100 pmol, total radioactivity, 24 h after injection, 100 pmol, n = 4; read-out: Biodistribution, Liver
  tissue uptake at 24 h: 0.45 ± 0.03 %ID/g
[2]; CB17-SCID, mouse, muscle, intravenous, 100 pmol, total radioactivity, 24 h after injection, 100 pmol, n = 4; read-out: Biodistribution, Muscle
  tissue uptake at 24 h: 0.011 ± 0.011 %ID/g
[2]; CB17-SCID, mouse, pancreas, intravenous, 100 pmol, total radioactivity, 24 h after injection, 100 pmol, n = 4; read-out: Biodistribution, Pancreas
  tissue uptake at 24 h: 0.43 ± 0.06 %ID/g
[2]; CB17-SCID, mouse, tumor (PC-3), intravenous, 100 pmol, total radioactivity, PC-3 tumor, 24 h after injection, 100 pmol, n = 4; read-out: Biodistribution, Tumor
  tissue uptake at 24 h: 8.45 ± 0.19 %ID/g
[5]
  Intact tracer in murine plasma in vivo: 11.4% ± 3.7%
  Intact tracer in murine urine in vivo: 0.5% ± 0.1%
[6]
  Intact compound in human plasma in vitro: 38.7% ± 9.3%

## DOTA-4-aminobenzoyl-Gln^7- Trp^8-Ala^9- Val^10- Gly^11- His^12- Leu^13-Met^14-NH2 [AMBA]
GRPR [7]
  Internalization rates: more than 25%
